# Test results from patent US10933126B2, “Clostridium difficile immunogenic compositions and methods of use” (The Board of Regents of the University of Oklahoma, priority 2018, dated 2021).
# What was measured:
# PSII = test system: PSII; set-up: species or system B6 mice; details: mouse, in vivo
# [1] = test system: C. difficile VPI 10463 spores; test: C. difficile spore challenge assay in immunized B6 mice (body weight); format: in vivo; details: 10^4 spores
# Protocol: Non-immunized age- and sex-matched naïve B6 mice were Cefoperazone-treated and then treated with vehicle only (a) or were infected with 10^4 live C. difficile spores (b). Some mice were administered PSII alone followed by a PSII booster one week later (c), or administered vehicle only followed by the PSII booster one week later (d), or administered α-GC alone followed by the PSII booster (e), or administered a PSII and α-GC combination followed by the PSII booster (f), or administered α-GC alone followed by vehicle (g). Animals were then treated with the antibiotic Cefoperazone prior to being infected with 10^4 live C. difficile spores. Graphs show the percent of original weight, which was obtained daily and for the duration indicated. Five mice were used for each group except for the naïve-infected and the PSII/α-GC groups (n=10). […] In the uninfected control group (a), zero counts were detected (limit of detection in assay=10^2).
# Immunizations: Mice were immunized s.c. in both flanks with a total of 15 μg or 50 μg PSII or PSII plus 4 μg α-GC, in a 200 μl total volume of sterile low-endotoxin PBS. The amount of α-GC administered has been determined in previous studies to exert a strong CD1d- and NKT-dependent effect on Ab responses. […]
# Animal weight was then measured daily. […]
smiles,measurement,setting,value
"CCCCCCCCCCCCCCCCCCCCCCCCCC(=O)N[C@@H](CO[C@H]1O[C@H](CO)[C@H](O)[C@H](O)[C@H]1O)[C@H](O)[C@H](O)CCCCCCCCCCCCCC [α-GC, (2S,3S,4R)-1-O-(α-D-Galactosyl)-N-hexacosanoyl-2-amino-1,3,4-octadecanetriol]",Anti-PSII titers,PSII,could not be detected
same,Body weight after C. difficile challenge,"[1]; α-GC alone, w/o a PSII booster (FIG. 6g)",did not protect against weight loss
same,Body weight after C. difficile challenge,[1]; α-GC followed one week later with PSII (FIG. 6e),no weight loss was observed
